Assay results reported in PMC12705620 (Frontiers in Pharmacology, 2025).
Bridge positions count the residues as written; N and C are the ends. Square brackets hold non-standard residues; d marks the D form. Peptide text beside a SMILES is read from it. I, II: the chains in the order shown. Dap = NC[C@H](N)C(=O)O; Ahx = NCCCCCC(=O)O

How the values were obtained:
[1] = system: TNF-α production by unstimulated dTHP-1 macrophages; assay: TNFα induction by peptides alone in macrophages; assay type: cell-based, human; conditions: 2 µM peptide, 4 h, no endotoxin stimulation, versus unstimulated cells
Description: The endotoxin-neutralizing capacity of the peptides was assessed by measuring tumor necrosis factor-alpha (TNF-α) production by dTHP-1 macrophages. dTHP-1 macrophages were stimulated with either lipopolysaccharide (LPS; E. coli O111:B4; 5 ng/mL, Sigma-Aldrich) or UV-inactivated S. aureus JAR060131 (MOI 2; as described in Section 5.2), in the presence or absence of one or 2 µM peptides. Cells were cultured in serum-free RPMI and incubated for 4 h at 37 °C with 5% CO2. Positive controls consisted of cells stimulated with LPS or UV-S. aureus without peptide treatment (no treatment, NT), and unstimulated cells served as negative controls. After stimulation, cell supernatants were collected, and cytokine levels of TNF-α were quantified using human ELISA kits (R&D Systems, USA) according to the manufacturer’s instructions. Each condition was tested in triplicate.

[2] = system: HaCaT keratinocytes; assay: In vitro scratch wound assay; assay type: cell-based, human; conditions: 1 µM peptide (TGF-β 20 ng/mL); for Percentage of wound closure: 60 h (legend: 64 h); for Percentage of wound closure / Rate of cell migration: versus no treatment
Description: Cell migration following injury was assessed using an in vitro scratch assay with the IncuCyte wound maker tool (Sartorius). HaCaT keratinocytes were seeded in 96-well ImageLock plates (Sartorius) at 3 × 10^5 cells/well (100 µL) in DMEM supplemented with 10% FBS and incubated at 37 °C, 5% CO2 for 48 h, with medium change at 24 h, until confluence. Uniform scratches were introduced using the wound maker tool according to the manufacturer’s instructions. After wounding, wells were washed twice with 100 µL PBS to remove cell debris. Cells were then treated with 1 µM peptides in serum-free DMEM, to focus specifically on cell migration from the wound edges. The absence of serum minimizes interference with peptide activity. Transforming growth factor-beta (TGF-β; human; 20 ng/mL; Sigma-Aldrich) and 5% dimethyl sulfoxide (DMSO; Sigma-Aldrich) were used as positive and negative controls, respectively. Additional controls included serum-free DMEM (no-treatment control) and 50% (v/v) acetonitrile in Milli-Q water as solvent control. Wound closure was monitored using the IncuCyte S3 live-cell imaging system (Sartorius) with bright-field microscopy. Images were captured every 6 h for up to 60 h. Image analysis was performed using ImageJ software (version 1.53t, NIH, USA) with the “Wound Healing” plugin, as described by Suarez Arnedo et al. ([Suarez-Arnedo et al., 2020]). Quantitative parameters included wound width (µm), percent wound closure, and migration rate (µm/hour).

[3] = system: Staphylococcus aureus JAR060131; assay type: cell-based; conditions: JAR060131, 18 h
Description: Bactericidal activity was assessed as previously described ([Breij et al., 2018]). Briefly, mid-logarithmic phase bacterial cultures were diluted in RPMI to 1 × 10^7 CFU/mL. For fungicidal assays, fungal cultures were prepared in RPMI supplemented with 1% glucose (Merck) and diluted to 2–5 × 10^5 CFU/mL. For each condition, 10 µL of the suspension was added to 90 µL of peptide-containing RPMI or RPMI supplemented with 50% (v/v) pooled human plasma (hereafter referred to as 50% plasma; final bacterial concentration 1 × 10^6 CFU/mL, final fungal concentration 2–5 × 10^4 CFU/mL. Human plasma from four healthy volunteers (Sanquin, Netherlands) was pooled, and stored at −20 °C until use. Peptides were tested similarly for fungicidal activity, after 18 h of incubation at 37 °C with shaking (120 rpm) under humidified conditions, bacterial and fungal survival was determined by plating 10 µL aliquots onto BA plates. Assays were performed in duplicate in round-bottom polypropylene microtiter plates (Costar) and repeated independently three times. Untreated controls included bacteria exposed to RPMI alone or RPMI with 50% plasma. Bactericidal and fungicidal activity was expressed as the lethal concentration 99.9% (LC99.9), defined as the lowest peptide concentration causing ≥99.9% reduction in numbers of CFU compared to the initial inoculum.

[4] = system: S. aureus RN4220 (mCherry) in dTHP-1 macrophages; assay: Intracellular bacterial killing in macrophages; assay type: cell-based, Staphylococcus aureus; conditions: 24 h pre-treatment at 1 µM and 2 µM, MOI 2, CFU after lysis, versus no treatment
Description: Human monocytes (THP-1; TIB-202; ATCC) were cultured in RPMI 1,640 medium (Gibco) supplemented with 10% FBS. For differentiation into macrophage-like cells (dTHP-1), THP-1 monocytes were seeded in 96-well plates at 3 × 10^4 cells/well (100 µL) in RPMI supplemented with 50 ng/mL phorbol 12-myristate 13-acetate (PMA; Sigma-Aldrich), and incubated for 48 h. The protocol for intracellular killing was adapted from Tang et al. ([Tang et al., 2015]) with modifications. After differentiation, dTHP-1 cells were pre-treated with one or 2 µM peptide solutions in fresh RPMI for 24 h. Subsequently peptides were removed by washing three times with PBS. An mCherry-expressing S. aureus strain, prepared as described in Section 5.2, was used. This strain is efficiently internalized by macrophages ([Cuypers et al., 2024]). Bacteria were added to dTHP-1 cells at a multiplicity of infection (MOI) of 2:1 and incubated for 45 min at 37 °C with 5% CO2 for phagocytosis. Extracellular bacteria were then removed by washing the wells three times with 60 µL PBS, followed by a final wash with 200 µL PBS.dTHP-1 cells were either lysed immediately to quantify the number of intracellular bacteria, after phagocytosis (T = 0 h) or were incubated for 24 h (T = 24 h) in RPMI supplemented with 10 μg/mL gentamicin (Sigma-Aldrich) to inhibit extracellular bacterial growth (in both peptide-treated and control dTHP-1 cells). Internalized bacteria were quantified after lysing the cells with 0.025% Triton X-100 in PBS for 15 min. Lysates were serially diluted (both at 0 h and 24 h) and plated onto BA for CFU enumeration to assess intracellular bacterial survival.

[5] = system: A. baumannii RUH875; assay: Bactericidal (time-kill) kinetics; assay type: cell-based, Acinetobacter baumannii; conditions: for Time to complete killing: 3.75 µM peptide
Description: Time-kill kinetics were evaluated against S. aureus JAR060131 and A. baumannii RUH875. Mid-logarithmic phase bacterial cultures were diluted to a final concentration of 1 × 10^6 CFU/mL in PBS. Bacteria were incubated with 0.5-, 2-, and 4-fold the LC99.9. Assays were conducted in polypropylene tubes (Micronics) with a total volume of 500 µL. Control samples consisted of bacteria incubated in PBS alone. At 1, 5, 30, and 120 min, 50 µL samples were collected and immediately added to 50 µL of 0.05% (v/v) sodium polyanethol sulfonate (SPS; Sigma-Aldrich) in PBS to neutralize residual peptide activity ([Dankert et al., 1995]). Viable bacterial counts were determined by plating 10 µL of serial 10-fold dilutions onto BA plates. Colonies were counted after 24 h of incubation at 37 °C. All conditions were performed in triplicate.

Compound: N=C(N)NCCC[C@H](NC(=O)[C@H](Cc1c[nH]c2ccccc12)NC(=O)[C@H](CCC(N)=O)NC(=O)[C@H](Cc1c[nH]c2ccccc12)NC(=O)[C@H](CCCNC(=N)N)NC(=O)[C@@H](N)CCCNC(=N)N)C(=O)NC[C@H](NC(=O)[C@H](CCCNC(=N)N)NC(=O)[C@H](Cc1c[nH]c2ccccc12)NC(=O)[C@H](CCC(N)=O)NC(=O)[C@H](Cc1c[nH]c2ccccc12)NC(=O)[C@H](CCCNC(=N)N)NC(=O)[C@@H](N)CCCNC(=N)N)C(=O)NCCCCCC(=O)N[C@@H](CSSC[C@H](NC(=O)CCCCCNC(=O)[C@H](CNC(=O)[C@H](CCCNC(=N)N)NC(=O)[C@H](Cc1c[nH]c2ccccc12)NC(=O)[C@H](CCC(N)=O)NC(=O)[C@H](Cc1c[nH]c2ccccc12)NC(=O)[C@H](CCCNC(=N)N)NC(=O)[C@@H](N)CCCNC(=N)N)NC(=O)[C@H](CCCNC(=N)N)NC(=O)[C@H](Cc1c[nH]c2ccccc12)NC(=O)[C@H](CCC(N)=O)NC(=O)[C@H](Cc1c[nH]c2ccccc12)NC(=O)[C@H](CCCNC(=N)N)NC(=O)[C@@H](N)CCCNC(=N)N)C(N)=O)C(N)=O [LBT-1] (I: H-RRWQWR[Dap][Ahx]C-NH2 / II: H-RRWQWR[Dap][Ahx]C-NH2 / III: H-RRWQWR / IV: H-RRWQWR; amide I:7-III:C, II:7-IV:C; disulfide I:9-II:9; N-terminus and C-terminus assumed)
- TNFα induction by peptide alone [1]: minimal but significant
- Percentage of wound closure [2]: significant wound closure
- Rate of cell migration [2]: ns
- LC99.9 [3]: 0.47 µM
- Macrophage reduction of intracellular S. aureus burden 24 h post-phagocytosis [4]: significantly enhanced
- Time to complete killing [5]: ≤ 30 min
- Log reduction in CFU ([5]; within 1 min at 3.75 µM): > 3 log

Compound: N=C(N)NCCC[C@H](NC(=O)[C@H](Cc1c[nH]c2ccccc12)NC(=O)[C@H](CCC(N)=O)NC(=O)[C@H](Cc1c[nH]c2ccccc12)NC(=O)[C@H](CCCNC(=N)N)NC(=O)[C@@H](N)CCCNC(=N)N)C(=O)NCCCC[C@H](NC(=O)[C@H](CCCNC(=N)N)NC(=O)[C@H](Cc1c[nH]c2ccccc12)NC(=O)[C@H](CCC(N)=O)NC(=O)[C@H](Cc1c[nH]c2ccccc12)NC(=O)[C@H](CCCNC(=N)N)NC(=O)[C@@H](N)CCCNC(=N)N)C(=O)NCCCCCC(=O)N[C@@H](CSSC[C@H](NC(=O)CCCCCNC(=O)[C@H](CCCCNC(=O)[C@H](CCCNC(=N)N)NC(=O)[C@H](Cc1c[nH]c2ccccc12)NC(=O)[C@H](CCC(N)=O)NC(=O)[C@H](Cc1c[nH]c2ccccc12)NC(=O)[C@H](CCCNC(=N)N)NC(=O)[C@@H](N)CCCNC(=N)N)NC(=O)[C@H](CCCNC(=N)N)NC(=O)[C@H](Cc1c[nH]c2ccccc12)NC(=O)[C@H](CCC(N)=O)NC(=O)[C@H](Cc1c[nH]c2ccccc12)NC(=O)[C@H](CCCNC(=N)N)NC(=O)[C@@H](N)CCCNC(=N)N)C(N)=O)C(N)=O [LBT] (I: H-RRWQWRK[Ahx]C-NH2 / II: H-RRWQWRK[Ahx]C-NH2 / III: H-RRWQWR / IV: H-RRWQWR; amide I:7-III:C, II:7-IV:C; disulfide I:9-II:9; N-terminus and C-terminus assumed)
- Percentage of wound closure [2]: significant wound closure
- Wound width reduction ([2]; serum-free DMEM, versus untreated control): significantly reduced wound width
- Rate of cell migration [2]: highest migration (p < 0.05)
- LC99.9 [3]: 0.47 µM
- Macrophage reduction of intracellular S. aureus burden 24 h post-phagocytosis [4]: significantly enhanced
- Time to complete killing [5]: 120 min
